{
  "source": "patent US9120805B2",
  "about": "“Substituted pyrrolo[1,2-A]pyrazin-1-ones and pyrazolo[1,5-A]pyrazin-4-ones as inhibitors of tankyrase and poly(ADP-ribose)polymerase activity” (Merck Patent GmbH, priority 2012, dated 2015)",
  "data": [
    {"biological_target": "T1, GST-tagged Tankyrase-1 (1023-1327 aa) (Homo sapiens, UniProt O95271)", "T1 construct": "GST-tagged Tankyrase-1 (1023-1327 aa)", "T1 sequence (O95271 1023-1327)": "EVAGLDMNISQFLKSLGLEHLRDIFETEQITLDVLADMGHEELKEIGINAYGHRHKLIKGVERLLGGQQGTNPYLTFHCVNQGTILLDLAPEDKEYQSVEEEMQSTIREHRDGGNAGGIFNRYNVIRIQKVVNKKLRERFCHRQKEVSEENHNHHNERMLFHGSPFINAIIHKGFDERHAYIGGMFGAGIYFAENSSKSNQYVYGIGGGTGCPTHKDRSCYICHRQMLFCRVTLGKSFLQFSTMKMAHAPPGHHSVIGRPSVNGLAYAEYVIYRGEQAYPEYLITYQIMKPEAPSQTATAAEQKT", "assay": "Tankyrase 1 autoparsylation assay (HTRF enzyme assay)", "format": "biochemical", "conditions": "not given", "method": "(§1) Biochemical Activity Testing of Tankyrase 1 and 2: Autoparsylation Assay\n(§2) The autoparsylation assay is run in two steps: the enzymatic reaction in which GST-tagged Tankyrase-1, resp Tankyrase-2 transferred biotinylated ADP-ribose to itself from biotinylated NAD as co-substrate and the detection reaction where a time resolved FRET between cryptate labelled anti-GST bound to the GST tag of the enzyme and Xlent® labelled-streptavidin bound the biotin-parsylation residue is analysed. The autoparsylation activity was detectable directly via the increase in HTRF signal.\n(§3) The autoparsylation assay is performed as 384-well HTRF® (Cisbio, Codolet, France) assay format in Greiner low volume nb 384-well microtiter plates and is used for high throughput screen. 250 nM GST-tagged Tankyrase-1 (1023-1327 aa), respectively about 250 nM GST-tagged Tankyrase-2 (873-1166 aa) and 5 μM bio-NAD (Biolog, Life science Inst., Bremen, Germany) as co-substrate are incubated in a total volume of 5 μl (50 mM HEPES, 4 mM Mg-chloride, 0.05% Pluronic F-68, 1.4 mM DTT, 0.5% DMSO, pH 7.7) in the absence or presence of the test compound (10 dilution concentrations) for 90 min at 30° C. The reaction is stopped by the addition of 1 μl 50 mM EDTA solution. 2 μl of the detection solution (1.6 μM SA-Xlent® (Cisbio, Codolet, France), 7.4 nM Anti-GST-K® (Eu-labelled anti-GST, Cisbio, Codolet, France) in 50 mM HEPES, 800 mM KF, 0.1% BSA, 20 mM EDTA, 0.1% CHAPS, pH 7.0) are added. After 1 h incubation at room temperature the HTRF is measured with an Envision multimode reader (Perkin Elmer LAS Germany GmbH) at excitation wavelength 340 nm (laser mode) and emission wavelengths 615 nm and 665 nm. The ratio of the emission signals is determined. The full value used is the inhibitor-free reaction. The pharmacological zero value used is XAV-939 (Tocris) in a final concentration of 5 μM. The inhibitory values (IC50) are determined using either the program Symyx Assay Explorer® or Condosseo® from GeneData.", "units": {"IC50": "µM"}, "values": [
      {"smiles": "O=c1[nH]c(-c2ccc(OCc3ccccc3)cc2)cn2cccc12", "note": "[Compound A1, 3-(4-benzyloxy-phenyl)-2H-pyrrolo[1,2-a]pyrazin-1-one]", "IC50": "< 0.3"},
      {"smiles": "O=c1[nH]c(-c2cccc(Cl)c2)cn2cccc12", "note": "[Compound A3, 3-(3-chloro-phenyl)-2H-pyrrolo[1,2-a]pyrazin-1-one]", "IC50": "0.3 to 3"},
      {"smiles": "COc1cccc(-c2cn3cccc3c(=O)[nH]2)c1", "note": "[Compound A4, 3-(3-methoxy-phenyl)-2H-pyrrolo[1,2-a]pyrazin-1-one]", "IC50": "0.3 to 3"},
      {"smiles": "O=c1[nH]c(-c2ccc([N+](=O)[O-])cc2)cn2cccc12", "note": "[Compound A6, 3-(4-nitro-phenyl)-2H-pyrrolo[1,2-a]pyrazin-1-one]", "IC50": "< 0.3"},
      {"smiles": "COc1ccc(-c2cn3cccc3c(=O)[nH]2)cc1", "note": "[Compound A7, 3-(4-methoxy-phenyl)-2H-pyrrolo[1,2-a]pyrazin-1-one]", "IC50": "< 0.3"},
      {"smiles": "COc1ccc(-c2cn3cccc3c(=O)[nH]2)cc1OC", "note": "[Compound A8, 3-(3,4-dimethoxy-phenyl)-2H-pyrrolo[1,2-a]pyrazin-1-one]", "IC50": "0.3 to 3"},
      {"smiles": "O=c1[nH]c(-c2ccc3c(c2)OCO3)cn2cccc12", "note": "[Compound A9, 3-benzo[1,3]dioxol-5-yl-2H-pyrrolo[1,2-a]pyrazin-1-one]", "IC50": "0.3 to 3"},
      {"smiles": "O=c1[nH]c(-c2ccc(F)cc2)cn2cccc12", "note": "[Compound A10, 3-(4-fluoro-phenyl)-2H-pyrrolo[1,2-a]pyrazin-1-one]", "IC50": "0.3 to 3"}
    ]},
    {"biological_target": "T2, GST-tagged Tankyrase-2 (873-1166 aa) (Homo sapiens, UniProt Q9H2K2)", "T2 construct": "GST-tagged Tankyrase-2 (873-1166 aa)", "T2 sequence (Q9H2K2 873-1166)": "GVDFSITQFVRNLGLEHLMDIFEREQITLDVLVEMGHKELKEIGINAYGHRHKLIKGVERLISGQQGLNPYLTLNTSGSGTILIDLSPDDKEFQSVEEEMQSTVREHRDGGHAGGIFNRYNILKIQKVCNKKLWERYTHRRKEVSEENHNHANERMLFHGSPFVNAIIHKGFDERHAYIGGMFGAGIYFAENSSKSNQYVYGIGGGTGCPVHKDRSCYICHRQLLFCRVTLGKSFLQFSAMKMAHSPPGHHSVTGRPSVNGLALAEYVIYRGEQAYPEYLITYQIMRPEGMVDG", "assay": "Tankyrase 2 autoparsylation assay (HTRF enzyme assay)", "format": "biochemical", "conditions": "not given", "method": "as §1, §2, §3", "units": {"IC50": "µM"}, "values": [
      {"smiles": "O=c1[nH]c(-c2ccc(OCc3ccccc3)cc2)cn2cccc12", "note": "[Compound A1, 3-(4-benzyloxy-phenyl)-2H-pyrrolo[1,2-a]pyrazin-1-one]", "IC50": "0.3 to 3"},
      {"smiles": "O=c1[nH]c(-c2cccc(Cl)c2)cn2cccc12", "note": "[Compound A3, 3-(3-chloro-phenyl)-2H-pyrrolo[1,2-a]pyrazin-1-one]", "IC50": "0.3 to 3"},
      {"smiles": "COc1cccc(-c2cn3cccc3c(=O)[nH]2)c1", "note": "[Compound A4, 3-(3-methoxy-phenyl)-2H-pyrrolo[1,2-a]pyrazin-1-one]", "IC50": "0.3 to 3"},
      {"smiles": "O=c1[nH]c(-c2ccc([N+](=O)[O-])cc2)cn2cccc12", "note": "[Compound A6, 3-(4-nitro-phenyl)-2H-pyrrolo[1,2-a]pyrazin-1-one]", "IC50": "< 0.3"},
      {"smiles": "COc1ccc(-c2cn3cccc3c(=O)[nH]2)cc1", "note": "[Compound A7, 3-(4-methoxy-phenyl)-2H-pyrrolo[1,2-a]pyrazin-1-one]", "IC50": "0.3 to 3"},
      {"smiles": "COc1ccc(-c2cn3cccc3c(=O)[nH]2)cc1OC", "note": "[Compound A8, 3-(3,4-dimethoxy-phenyl)-2H-pyrrolo[1,2-a]pyrazin-1-one]", "IC50": "3 to 50"},
      {"smiles": "O=c1[nH]c(-c2ccc3c(c2)OCO3)cn2cccc12", "note": "[Compound A9, 3-benzo[1,3]dioxol-5-yl-2H-pyrrolo[1,2-a]pyrazin-1-one]", "IC50": "0.3 to 3"},
      {"smiles": "O=c1[nH]c(-c2ccc(F)cc2)cn2cccc12", "note": "[Compound A10, 3-(4-fluoro-phenyl)-2H-pyrrolo[1,2-a]pyrazin-1-one]", "IC50": "0.3 to 3"}
    ]},
    {"test_system": "tankyrase 1/2", "assay": "Cellular inhibition of Tankyrase: increase of Axin2 level in DLD1 cells (Luminex)", "format": "cell-based", "conditions": "24 hours, read-out: EC50 tankyrase 1/2 (cell assay)", "method": "Measurement of Cellular Inhibition of Tankyrase\nSince Tankyrases have been described to modulate cellular level of Axin2 (Huang et al., 2009; Nature) the increase of Axin2 level is used as read-out for determination of cellular inhibition of Tankyrases in a Luminex based assay.\nCells of the colon carcinoma cell line DLD1 are plated in 96 well plates with 1.5×10^4 cells per well. Next day, cells are treated with a serial dilution of test compound in seven steps as triplicates with a final DMSO concentration of 0.3%. After 24 hours, cells are lysed in lysis buffer (20 mM Tris/HCl pH 8.0, 150 mM NaCl, 1% NP40, 10% Glycerol) and lysates are cleared by centrifugation through a 96 well filter plate (0.65 μm). Axin2 protein is isolated from cell lysates by incubation with a monoclonal anti-Axin2 antibody (R&D Systems #MAB6078) that is bound to fluorescent carboxybeads. Then, bound Axin2 is specifically detected with a polyclonal anti-Axin2 antibody (Cell Signaling #2151) and an appropriate PE-fluorescent secondary antibody. The amount of isolated Axin2 protein is determined in a Luminex^200 machine (Luminex Corporation) according to the manufacturer's instruction by counting 100 events per well. Inhibition of Tankyrase by test compounds results in higher levels of Axin2 which directly correlates with an increase of detectable fluorescence. As controls cells are treated with solvent alone (neutral control) and with a Tankyrase reference inhibitor IWR-2 (3E-06 M) which refers as control for maximum increase of Axin2. For analysis, the obtained data are normalized against the untreated solvent control and fitted for determination of the EC50 values using the Assay Explorer software (Accelrys).", "units": {"EC50": "µM"}, "values": [
      {"smiles": "COc1ccc(-c2cn3cccc3c(=O)[nH]2)cc1", "note": "[Compound A7, 3-(4-methoxy-phenyl)-2H-pyrrolo[1,2-a]pyrazin-1-one]", "EC50": "3 to 50"}
    ]},
    {"biological_target": "T3, His-tagged Parp-1 (Homo sapiens, UniProt P09874)", "T3 construct": "purchased Enzo Life Sciences GmbH", "T3 sequence (P09874 whole entry)": "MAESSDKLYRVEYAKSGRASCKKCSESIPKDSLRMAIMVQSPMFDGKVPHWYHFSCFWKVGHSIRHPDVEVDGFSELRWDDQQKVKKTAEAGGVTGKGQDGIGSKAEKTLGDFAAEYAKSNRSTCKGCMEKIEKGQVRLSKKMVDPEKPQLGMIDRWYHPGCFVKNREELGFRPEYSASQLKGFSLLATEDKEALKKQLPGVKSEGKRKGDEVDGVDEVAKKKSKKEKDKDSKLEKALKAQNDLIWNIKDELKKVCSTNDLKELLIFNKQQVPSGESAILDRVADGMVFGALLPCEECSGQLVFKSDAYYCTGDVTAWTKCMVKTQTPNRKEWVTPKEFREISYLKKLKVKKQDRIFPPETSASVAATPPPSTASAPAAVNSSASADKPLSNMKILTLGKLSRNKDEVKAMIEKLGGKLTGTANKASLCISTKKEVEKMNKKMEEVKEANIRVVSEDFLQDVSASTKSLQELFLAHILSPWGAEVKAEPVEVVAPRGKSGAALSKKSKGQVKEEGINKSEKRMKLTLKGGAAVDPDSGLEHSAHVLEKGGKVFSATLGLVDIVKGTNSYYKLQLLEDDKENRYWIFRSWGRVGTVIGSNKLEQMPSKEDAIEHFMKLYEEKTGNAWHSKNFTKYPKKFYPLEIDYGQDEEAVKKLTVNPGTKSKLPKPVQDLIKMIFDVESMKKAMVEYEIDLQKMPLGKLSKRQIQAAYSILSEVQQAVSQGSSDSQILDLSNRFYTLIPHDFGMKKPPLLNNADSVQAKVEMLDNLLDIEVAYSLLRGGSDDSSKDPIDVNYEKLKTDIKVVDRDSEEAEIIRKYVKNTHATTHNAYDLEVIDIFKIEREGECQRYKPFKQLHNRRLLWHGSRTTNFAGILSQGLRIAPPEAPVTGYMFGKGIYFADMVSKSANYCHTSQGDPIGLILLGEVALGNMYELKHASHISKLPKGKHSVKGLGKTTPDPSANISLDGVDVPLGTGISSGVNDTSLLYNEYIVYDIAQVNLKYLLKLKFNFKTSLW", "assay": "PARP-1 autoparsylation assay (HTRF)", "format": "biochemical", "conditions": "PARP-1 autoparsylation HTRF assay", "description": "Description of the PARP1 Assay\nBiochemical Activity Testing of PARP-1: Autoparsylation Assay\nThe autoparsylation assay is run in two steps: the enzymatic reaction in which\nHis-tagged Parp-1 transfers biotinylated ADP-ribose/ADP-ribose to itself from biotinylated NAD/NAD as co-substrate and the detection reaction where a time resolved FRET between cryptate labelled anti-His antibody bound to the His tag of the enzyme and Xlent® labelled-streptavidin bound the biotin-parsylation residue is analysed. The autoparsylation activity is detectable directly via the increase in HTRF signal.\nThe autoparsylation assay is performed as 384-well HTRF® (Cisbio, Codolet, France) assay format in Greiner low volume nb 384-well microtiter plates. 35 nM His-tagged Parp-1 (human, recombinant, Enzo Life Sciences GmbH, Lörrach, Germany) and a mixture of 125 nM bio-NAD (Biolog, Life science Inst., Bremen, Germany) and 800 nM NAD as co-substrate are incubated in a total volume of 6 μl (100 mM Tris/HCl, 4 mM Mg-chloride, 0.01% IGEPAL® CA630, 1 mM DTT, 0.5% DMSO, pH 8, 13 ng/μl activated DNA (BPS Bioscience, San Diego, US)) in the absence or presence of the test compound (10 dilution concentrations) for 150 min at 23° C. The reaction is stopped by the addition of 4 μl of the Stop/detection solution (70 nM SA-Xlent® (Cisbio, Codolet, France), 2.5 nM Anti-His-K® (Eu-labelled anti-His, Cisbio, Codolet, France) in 50 mM HEPES, 400 mM KF, 0.1% BSA, 20 mM EDTA, pH 7.0). After 1 h incubation at room temperature the HTRF is measured with an Envision multimode reader (Perkin Elmer LAS Germany GmbH) at excitation wavelength 340 nm (laser mode) and emission wavelengths 615 nm and 665 nm. The ratio of the emission signals is determined. The full value used is the inhibitor-free reaction. The pharmacological zero value used is Olaparib (LClabs, Woburn, US) in a final concentration of 1 μM. The inhibitory values (IC50) are determined using either the program Symyx Assay Explorer® or Condosseo® from GeneData.", "units": {"IC50": "µM"}, "values": [
      {"smiles": "O=c1[nH]c(-c2ccc(OCc3ccccc3)cc2)cn2cccc12", "note": "[Compound A1, 3-(4-benzyloxy-phenyl)-2H-pyrrolo[1,2-a]pyrazin-1-one]", "IC50": "0.3 to 3"},
      {"smiles": "O=c1[nH]c(-c2cccc(Cl)c2)cn2cccc12", "note": "[Compound A3, 3-(3-chloro-phenyl)-2H-pyrrolo[1,2-a]pyrazin-1-one]", "IC50": "0.3 to 3"},
      {"smiles": "COc1cccc(-c2cn3cccc3c(=O)[nH]2)c1", "note": "[Compound A4, 3-(3-methoxy-phenyl)-2H-pyrrolo[1,2-a]pyrazin-1-one]", "IC50": "0.3 to 3"},
      {"smiles": "O=c1[nH]c(-c2ccc([N+](=O)[O-])cc2)cn2cccc12", "note": "[Compound A6, 3-(4-nitro-phenyl)-2H-pyrrolo[1,2-a]pyrazin-1-one]", "IC50": "0.3 to 3"},
      {"smiles": "COc1ccc(-c2cn3cccc3c(=O)[nH]2)cc1", "note": "[Compound A7, 3-(4-methoxy-phenyl)-2H-pyrrolo[1,2-a]pyrazin-1-one]", "IC50": "0.3 to 3"},
      {"smiles": "COc1ccc(-c2cn3cccc3c(=O)[nH]2)cc1OC", "note": "[Compound A8, 3-(3,4-dimethoxy-phenyl)-2H-pyrrolo[1,2-a]pyrazin-1-one]", "IC50": "3 to 50"},
      {"smiles": "O=c1[nH]c(-c2ccc3c(c2)OCO3)cn2cccc12", "note": "[Compound A9, 3-benzo[1,3]dioxol-5-yl-2H-pyrrolo[1,2-a]pyrazin-1-one]", "IC50": "3 to 50"},
      {"smiles": "O=c1[nH]c(-c2ccc(F)cc2)cn2cccc12", "note": "[Compound A10, 3-(4-fluoro-phenyl)-2H-pyrrolo[1,2-a]pyrazin-1-one]", "IC50": "0.3 to 3"}
    ]}
  ]
}
